Source: US8545834B2, “G-substrate for the treatment and prevention of parkinson's disease” (The McLean Hospital Corporation, priority 2007, dated 2013)

Tests used:
[1] = system: VMAT2; assay: Western blot of VMAT2 expression in M17 cells; type: cell-based, human; settings: naïve M17 cells
Excerpt: BE(2)-M17 cells were used to investigate the interaction between G-substrate and α-synuclein, a known risk factor and possible causative agent in Parkinson's disease. […] Likewise, VMAT2 expression was reduced in naïve M17 cells following the reduction in endogenous G-substrate using siRNA (FIG. 10C).
M17 cells transiently and stably overexpression α-synuclein were transfected using the G-substrate lentiviral vector described above.
The PP2A regulation of VMAT 2 was investigated in M17 cells. PP2A levels were reduced using RNAi. […] The effect of PP2A inhibition was not generalized to other dopaminergic markers tested.
Cells and tissue samples were collected from and suspended in lysis buffer containing: 50 mM Tris-HCl, 0.15 M NaCl, 0.32 M sucrose, 1.0 mM EDTA, and 1% NP-40. In addition, phosphatase inhibitors I and II (1:100) and protease inhibitors (1:100) were added fresh prior to cell lysis (Sigma-Aldrich, P2850, P5276, and P8340 respectively). Following cell lysis, the homogenate was centrifuged, a portion of the supernatant was reserved for protein determination (BCA Assay, Pierce, Rockford, Ill.) and the remaining was stored at −20° C. 20 μg (in vitro cell preps) and 50 μg (tissue dissections) of solubilized protein were mixed 1:1 with sample buffer and boiled for 5 min. The samples and molecular weight standards were separated using the Criterion precast 10% SDS-polyacrylamide gel system (Bio-Rad, Hercules, Calif.). After electrophoresis, the proteins were electrically transferred to PVDF membranes at 100 V for 30 min. After transfer, blots were incubated in Tris-buffered saline with 0.1% Tween 20 (TBS-T) containing 5% BSA. Subsequently, blots were incubated with the following antibodies at 4° C. overnight (1:1000 unless otherwise stated): phospho-Akt (ser473), phospho-GSK3β (ser9), phospho-erk1/2, and phospho-p38 (Cell Signaling Technologies, Danvers, Mass.). HRP-conjugated secondary antibodies were then applied and immunoreactive bands were visualized with chemiluminescence (Amersham Biosciences, Arlington Heights, Ill.) and exposed onto film. Immunoblots were then stripped and re-probed for the expression of the total protein (Cell Signaling) and beta-actin (1:10 000) (Abcam) to serve as a loading control. Optical density analysis (NIH image) was used to determine the relative abundance of protein in each sample. The optical densities of the phospho epitopes were standardized to their respective total proteins and this value was used in the statistical analyses.

[2] = system: BE(2)-M17 cells; assay: In vitro protection assays (MTS cell viability, LDH release) against neurotoxins; type: cell-based, human; settings: for protection against 50 μM 6-OHDA exposure by PP2A inhibition (MTS cellular viability): BE(2)-M17 cells without elevated G-substrate, normalized to control
Procedure: Viability of the M17 cells was assessed following exposure to a variety of neurotoxins, each representing different aspects of PD pathology. 6-hydroxydopamine (6-OHDA) causes oxidative stress. MG-132 induces proteasome inhibition. And, MPP+ causes mitochondrial dysfunction by inhibiting Complex I. Cytotoxicity of M17 cells was determined using both cell viability assays and LDH release. G-substrate overexpression in M17 cells was confirmed by Western blot analysis (FIG. 3A) and by immunocytochemistry (FIG. 3B).
BE(2)-M17 cells were transduced with lentivirus expressing control or G-substrate with a multiplicity of infection 15. Cells were grown in Optimem™ (Invitrogen, Carlsbad, Calif.) supplemented with 10% heat-inactivated fetal calf serum (Hyclone, Logan, Utah), nonessential amino acid and sodium pyruvate. Cells were maintained at 37° C., in 5% CO2 humid atmosphere. For the bioassay, cells were plated in 96 well plates at 5000 per well. The next day, cells were treated with various concentrations of 6-OHDA (Sigma), MG-132 (Calbiochem) and MPP+ (Sigma) for 20 hrs. The supernatant was used to determine cytotoxicity using LDH release assay kit (Roche, Indianapolis, Ind.) and the cells remaining on the plate was used to determine cell viability using MTS based solution, CellTiter 96 AQueous One™ solution cell proliferation assay (Promega, Madison, Wis.).
Three different siRNAs for human G-substrate as described herein, a negative control siRNA, and a validated Akt siRNA (Ambion; Austin, Tex.) were used. Cells were plated in 96 well plates at 5000 per well with siRNAs and siPORT NeoFX transfection agent (Ambion, Austin, Tex.). After 48 hrs of incubation with siRNAs, each of the toxicants (6-OHDA, MG-132 or MPP+) were applied to the cells. Cell viability and cytotoxicity was measured after 20 hrs of toxin exposure.

[3] = system: PP2A; assay: PP2A activity assay (immunoprecipitated PP2A, phosphopeptide, Malachite Green); type: cell-based, human
Procedure: PP2A activity was measured in control BE(2)-M17 cells at various incubation times (t=0, 1, 2, 5 and 8 hr) after exposure to 50 μM 6-OHDA. […] Control, wild-type, and T123A G-substrate-expressing cells were then exposed to 50 μM 6-OHDA for 2 hours before measurement of PP2A activity.
PP2A activity was measured using a non-radioactive kit according to the manufacturer's instruction (Upstate Biotechnologies, Lake Placid, N.Y.). After 50 μM 6-OHDA exposure with various times, cells were harvested in 20 mM imidazole-HCl, 2 mM EDTA, 2 mM EGTA, pH7 with a protease inhibitor cocktail (Sigma). Protein concentrations of the lysates were measured using BCA assay (Pierce) and 500 μg of protein was immunoprecipitated using an anti-PP2A catalytic subunit antibody and protein A-Sepharose beads. Immunoprecipitated PP2A was then incubated with phosphopeptide (K-R-pT-I-R-R (SEQ ID NO: 8)) for 10 min at 37° C. Dephosphorylation of the phosphopeptide was assayed spectrophotometrically at 650 nm using Malachite Green.

[4] = system: A9 DA neurons; type: in vivo, rat; settings: rats, intra-striatal 6-OHDA
Excerpt: Retrograde 6-OHDA lesioning within the striatum is a well-established method of creating progressive degeneration of A9 DA neurons. The loss of TH immunoreactivity reflects actual loss of DA neurons (Sauer, 1994).
The in vivo neuroprotective effects of G-substrate against 6-OHDA-induced toxicity was examined by injecting 6-OHDA into the corpus striatum of rats which previously had either G-substrate or control genes (empty vector or YFP) delivered to the midbrain using the lentivirus as described above. 6-OHDA induced approximately an 80% loss of TH-positive neurons in the midbrain (FIG. 12Q) and complete loss of TH immunoreactivity in the striatum (data not shown). The severity of the striatal insult in this paradigm precluded our ability to usefully measure protection of striatal nerve terminals. […] Furthermore, most of the surviving TH-positive neurons in lenti G-substrate-transduced rats were strongly G-substrate-positive (FIGS. 12G-12L).
Rats received two 2.75 μl stereotaxic injections of either lenti-empty vector+lenti-eGFP (n=19), lenti-G substrate+lenti-eGFP (n=19), or lenti-YFP (n=14) and delivered at a rate of 0.2 μl/min using microinfusion pumps (Stoelting Co, Wood Dale, Ill.) with 10 min wait times after each injection. Lenti-eGFP was added to each condition, excluding the YFP condition, to serve as an exogenous marker for surgical targeting (0.5 μl of the total 5.5 μl A volume). SN injection coordinates were as follows: site 1: AP −4.8, ML −2.0, DV −7.2; site 2: AP −5.5, ML −1.8, DV −7.2; and tooth bar set at −3.3. Virus titers (p24) were as follows: G substrate, 60 ng/μl; empty vector, 60 ng/μl; eGFP, 83 ng/μl; and YFP, 60 ng/μl.
Two weeks following lentiviral injection, animals (lenti-empty vector+lenti-eGFP (n=9), lenti-G substrate+lenti-eGFP (n=9), or lenti-YFP (n=14)) received three 2.5 μl stereotaxic injections of 3.0 μg/μl 6-OHDA (total dose=22.5 μg 6-OHDA) delivered at a rate of 0.5 μl/min and 5 min wait times after each injection. Striatum injection coordinates were as follows: site 1: AP +1.3, ML −2.8, DV −4.5; site 2: AP +0.2, ML, −3.0, DV −5.0; site 3: AP −0.6, ML −4.0, DV −5.5; and tooth bar set at −3.3. The lesion was allowed to progress for 3 weeks after which animals were sacrificed for post mortem analyses.
Brains were cut frozen in the coronal plane at a thickness of 40 μm on a sliding microtome and six series of sections were stored in cryoprotectant. Two full series of sections were processed for visualization of tyrosine hydroxylase (TH) via the biotin-labeled antibody procedure. Briefly, following several washes in a PBS solution containing 0.01% Triton X-100 (PBS-T), endogenous peroxidase was quenched in a 3% hydrogen peroxide solution and background staining was then inhibited in a 5% normal goat serum solution. […]

[5] = lentiviral overexpression in BE(2)-M17 cells, toxin 20 hrs, compared to control

Compound: C=C1[C@@H](O)[C@@H]2O[C@]3(CC[C@H](/C=C/[C@@H](C)[C@@H]4CC(C)=C[C@@]5(O[C@H](C[C@@](C)(O)C(=O)O)CC[C@H]5O)O4)O3)CC[C@H]2O[C@@H]1[C@@H](O)C[C@H](C)[C@H]1O[C@@]2(CCCCO2)CC[C@H]1C [okadaic acid, reference compound]
- VMAT2 expression [1]: increased VMAT2 levels
- protection against 50 μM 6-OHDA exposure by PP2A inhibition (MTS cellular viability) [2]: none of these methods alone were protective

Compound: NCCc1cc(O)c(O)cc1O [6-OHDA, 6-hydroxydopamine, reference compound]
- PP2A activity compared to basal activity ([3]; control BE(2)-M17 cells, 50 μM 6-OHDA, t=1, 2, 8 hr (all times except t=5 hr)): significantly increased
- loss of TH-positive neurons in the midbrain ([4]; 3 weeks): ~80%
- loss of TH immunoreactivity in the striatum ([4]; data not shown): complete loss

Compound: T123A mutant G-substrate: mutant G-substrate with Thr to Ala point mutation at Thr 123 (T119A of human), overexpressed from a lentiviral vector
- PP2A activity in G-substrate-expressing cells ([3]; BE(2)-M17 cells exposed to 50 μM 6-OHDA for 2 hours, versus control cells): reduced compared to controls, but not reduced as much as observed in the wild-type G-substrate-expressing cells
- protection against 6-OHDA and MG-132 compared to the wild-type ([2]; lentiviral overexpression in BE(2)-M17 cells): significantly less effective
- protection against MPP+-induced toxicity (cell viability, LDH release) ([2]; lentiviral overexpression in BE(2)-M17 cells, toxin 20 hrs): neither wild-type nor T123A mutant G-substrate overexpression was protective
- neuroprotection against 6-OHDA toxicity (cell viability, LDH release) [2, 5]: neuroprotective
- neuroprotection against MG-132 toxicity (cell viability, LDH release) [2, 5]: neuroprotective

Compound: COC[C@@H]([C@H](O)[C@H](O)C(=O)NCC[C@H](C)c1nc(/C=C/C[C@@H]2O[C@]3(C[C@@H](O)[C@@H]2C)O[C@H]([C@H](C[C@H](O)[C@H](C)[C@H](O)[C@H](C)/C=C(C)/C(C)=C/C=C/C(C)=C\C#N)OC)[C@H](OP(=O)(O)O)C3(C)C)co1)N(C)C [calyculin A, reference compound]
- VMAT2 expression [1]: increased VMAT2 levels
- protection against 50 μM 6-OHDA exposure by PP2A inhibition (MTS cellular viability) [2]: none of these methods alone were protective
